The test system of data set [1] is RAW264.7. Briefly: Anti-inflammatory activity in LPS-stimulated mouse RAW264.7 cells assessed as inhibition of NO production at 16 uM incubated for 24 hrs by Griess reagent based assay. Type of data set: functional, cell-based.
The test system of data set [2] is Pseudomonas aeruginosa. Nature of the data set: Antimicrobial activity against Pseudomonas aeruginosa PAO1 assessed as inhibition of bacterial growth incubated for 18 hrs by serial dilution method. In kind it is functional.
Data set [3] concerns Staphylococcus aureus. Nature of the data set: Antimicrobial activity against Staphylococcus aureus ATCC 29213 assessed as inhibition of bacterial growth incubated for 18 hrs by serial dilution method. Type of data set: functional.
Data set [4] deals with HEK293. Nature of the data set: Induction of cell proliferation in human HEK293 cells assessed as increase in cell viability at 0.1 to 1000 nM incubated for 48 hrs by MTT assay. Type of data set: functional, cell-based. To be noted: dose 0.1-1000 nM. (In general: Tetrazolium assays rely on reduction of a dye to a coloured formazan, in cell work by metabolically active cells.)

In data set [5] the test system is RAW264.7. Nature of the data set: Cytotoxicity against mouse RAW264.7 cells assessed as reduction in cell viability at 1 to 16 uM incubated for 24 hrs by MTT assay. Particulars: raw264.7, 24 h, dose 1-16 µM. In kind it is toxicity, cell-based.
For data set [6], the species on record is Mus musculus. Nature of the data set: Wound healing activity in Kunming mouse full-thickness excisional wound model assessed as increase in wound closure at 1 10^-7M, TOP BID and measured upto 8 days by image analysis. In kind it is functional, organism-based. Particulars: time <= 8.0 day.
Data set [7] relates to NIH3T3. Nature of the data set: Induction of cell migration in mouse NIH3T3 cells assessed as […] at 0.1 to 1000 nM incubated for 48 hrs by phase-contrast microscopy based scratch wound healing assay. To be noted: dose 0.1-1000 nM. Type of data set: functional.
A short description of data set [8]: Hemolytic activity in mouse erythrocytes assessed as haemoglobin release at 400 uM incubated for 1 hrs by microplate reader method. In kind it is toxicity, cell-based, Erythrocyte. Particulars: read-out: Activity.
For data set [9], the system named is Pseudomonas aeruginosa. Briefly: Antimicrobial activity against Pseudomonas aeruginosa ATCC 27853 assessed as inhibition of bacterial growth incubated for 18 hrs by serial dilution method. Type of data set: functional.
Data set [10] relates to Escherichia coli. Nature of the data set: Antimicrobial activity against Escherichia coli ML-35 assessed as inhibition of bacterial growth incubated for 18 hrs by serial dilution method. In kind it is functional.
For another data set, the system named is Bacillus subtilis. Briefly: Antimicrobial activity against Bacillus subtilis ATCC 23857 assessed as inhibition of bacterial growth incubated for 18 hrs by serial dilution method. In kind it is functional.
Data set [11] deals with NIH3T3. Briefly: Induction of cell proliferation in mouse NIH3T3 cells assessed as increase in cell viability at 0.1 to 1000 nM incubated for 48 hrs by MTT assay. In kind it is functional, cell-based. To be noted: dose 0.1-1000 nM.
Data set [12] deals with Escherichia coli. Nature of the data set: Antimicrobial activity against Escherichia coli ATCC 25922 assessed as inhibition of bacterial growth incubated for 18 hrs by serial dilution method. Type of data set: functional.
Data set [13] deals with Staphylococcus aureus. Nature of the data set: Antimicrobial activity against Staphylococcus aureus ATCC 25923 assessed as inhibition of bacterial growth incubated for 18 hrs by serial dilution method. In kind it is functional.
The test system of data set [14] is HEK293. Nature of the data set: Induction of cell proliferation in human HEK293 cells expressing NK1R assessed as increase in cell viability at 0.1 to 1000 nM incubated for 48 hrs by MTT assay. Type of data set: functional, cell-based. Particulars: dose 0.1-1000 nM.
For data set [15], the species on record is Mus musculus. Briefly: Antimicrobial activity in Staphylococcus aureus ATCC 25923 infected Kunming mouse excisional wound model assessed as decrease in bacterial growth at 1 10^-4M, TOP BID and measured upto 8 days by image analysis. In kind it is functional, organism-based. Particulars: time <= 8.0 day.
Data set [16] has as its system Staphylococcus aureus. Briefly: Bactericidal activity against Staphylococcus aureus ATCC 25923 assessed as reduction in colony forming unit at 2 times MIC and measured after 120 mins by time-kill kinetics assay. In kind it is functional, organism-based.
Data set [17] is filed under the species Mus musculus. Nature of the data set: Wound healing activity in Staphylococcus aureus ATCC 25923 infected Kunming mouse excisional wound model assessed as increase in wound repair at 1 10^-4M, TOP BID and measured upto 8 days by image analysis. Type of data set: functional, organism-based. Particulars: time <= 8.0 day.
Data set [18] has as its system RAW264.7. Nature of the data set: Anti-inflammatory activity against LPS-stimulated mouse RAW264.7 cells assessed as reduction in IL-1beta mRNA expression level at 1 to 16 uM incubated for 4 hrs by RT-qPCR analysis. Type of data set: functional, cell-based. Particulars: dose 1-16 µM.
For data set [19], the system named is RAW264.7. Nature of the data set: Anti-inflammatory activity against LPS-stimulated mouse RAW264.7 cells assessed as reduction in IL-6 mRNA expression level at 1 to 16 uM incubated for 4 hrs by RT-qPCR analysis. In kind it is functional, cell-based. Particulars: dose 1-16 µM. (In general: Real-time PCR tracks product formation cycle by cycle.)
For a further data set, the system named is Lipopolysaccharide (LPS). Nature of the data set: Binding affinity to Escherichia coli O111:B4 LPS assessed as dissociation constant by ITC assay. On the technique in general: ITC needs no label: the signal is the heat of the interaction.
Data set [20] concerns RAW264.7. Briefly: Anti-inflammatory activity against LPS-stimulated mouse RAW264.7 cells assessed as reduction in TNF-alpha mRNA expression level at 1 to 16 uM incubated for 4 hrs by RT-qPCR analysis. Type of data set: functional, cell-based. Particulars: dose 1-16 µM.
The nature of data set [21]: Cytotoxicity against mouse RAW264.7 cells assessed as cell survival rate at 16 uM incubated for 24 hrs by MTT assay. Type of data set: toxicity, cell-based. To be noted: read-out: Survival.
The species named for data set [22] is Mus musculus. Briefly: Wound healing activity in Kunming mouse full-thickness excisional wound model with splints assessed as increase in wound healing rate at 1 10^-7M, TOP BID and measured upto 8 days by image analysis. Type of data set: functional, organism-based. Particulars: time <= 8.0 day.

This note sets out measurements from ChEMBL document CHEMBL5338731, “Development of Neuropeptide Hemokinin-1 Analogues with Antimicrobial and Wound-Healing Activity” (J Med Chem, 2023).

Converted amounts (≈) assume the structure as drawn. The source made the active and inactive calls. The calls are words filed in the database; no cut-off is given here. Some results are limits rather than exact numbers.

With `CSCC[C@H](NC(=O)[C@H](CC(C)C)NC(=O)CNC(=O)[C@H](Cc1ccccc1)NC(=O)[C@H](Cc1ccccc1)NC(=O)[C@H](CCC(N)=O)NC(=O)[C@H](CO)NC(=O)[C@H](C)NC(=O)[C@H](CCCCN)NC(=O)CNC(=O)[C@@H](N)[C@H](C)O)C(N)=O`, in the data set with RAW264.7 [1], the inhibition entry is “inactive”. The MIC in the data set on Pseudomonas aeruginosa [2], in the data set on Staphylococcus aureus [3], with Pseudomonas aeruginosa [9], with Escherichia coli [10], in the data set on Bacillus subtilis and in the data set with Escherichia coli [12] was over 128 µM each time. Moreover, the MIC (commonly the least concentration at which growth counts as inhibited) with Staphylococcus aureus [13] was over 128 µM. The result in the data set on HEK293 [4] was inactive. Also, the Activity result in the data set on RAW264.7 [5] is reported as “Non-Toxic”. In addition, the result in the data set listed under Mus musculus [6], in the data set with NIH3T3 [7], in the data set with NIH3T3 [11] and with HEK293 [14] was Active. Also, the hemolysis at 1 h, 400 µM in data set [8] stood at 5.05%.

Regarding H-LKKWTGKASQFFGLM-NH2, the inhibition entry with RAW264.7 [1] is “inactive”. The MIC in the data set with Pseudomonas aeruginosa [2] is 128 µM; with Staphylococcus aureus [3] it was over 128 µM; in the data set with Pseudomonas aeruginosa [9], 128 µM; in the data set with Escherichia coli [10], 64 µM; in the data set with Bacillus subtilis it was 64 µM; with Escherichia coli [12] it was 64 µM. In the data set with Staphylococcus aureus [13], the MIC was over 128 µM. Besides, the Activity entry in the data set with RAW264.7 [5] is “Non-Toxic”. For the same compound, in the data set filed under Mus musculus [6], the outcome was Active. Further, the hemolysis at 1 h, 400 µM in data set [8] turned out to be 1.01%.

`CN[C@H](CC(C)C)C(=O)N[C@H]1C(=O)N[C@@H](CC(N)=O)C(=O)N[C@H]2C(=O)N[C@H]3C(=O)N[C@H](C(=O)N[C@H](C(=O)O)c4cc(O)cc(O)c4-c4cc3ccc4O)[C@H](O)c3ccc(c(Cl)c3)Oc3cc2cc(c3O[C@@H]2O[C@H](CO)[C@@H](O)[C@H](O)[C@H]2O[C@H]2C[C@](C)(N)[C@H](O)[C@H](C)O2)Oc2ccc(cc2Cl)[C@H]1O` [VANCOMYCIN]: the minimum inhibitory concentration (MIC) with Pseudomonas aeruginosa [2] was over 128 µM; in the data set on Staphylococcus aureus [3] it was under 1 µM; with Pseudomonas aeruginosa [9], over 128 µM; in the data set on Escherichia coli [10], 64 µM (≈ 92.8 µg/mL); in the data set on Bacillus subtilis, under 1 µM; in the data set with Escherichia coli [12] it was 64 µM (≈ 92.8 µg/mL). The MIC in the data set with Staphylococcus aureus [13] is under 1 µM. The result in the data set listed under Mus musculus [15] and in the data set listed under Mus musculus [17] was Active. For the same compound, in the data set on Staphylococcus aureus [16], the result was inactive.

As for H-LKKWLKKWTGKASQFFGLM-NH2, the inhibition result in the data set with RAW264.7 [1] was “Active”. Further, the Activity entry in the data set on RAW264.7 [18], in the data set with RAW264.7 [19] and in the data set on RAW264.7 [20] was “Dose-Dependent Effect” in each case. For the same compound, the MIC in the data set with Pseudomonas aeruginosa [2] turned out to be 4 µM; with Staphylococcus aureus [3], 8 µM; in the data set with Pseudomonas aeruginosa [9] it was 4 µM; with Escherichia coli [10], 2 µM; with Bacillus subtilis, 2 µM; with Escherichia coli [12] it was 2 µM. Further, the minimum inhibitory concentration (MIC) in the data set on Staphylococcus aureus [13] came out at 4 µM. Besides, in the data set with HEK293 [4], the outcome was inactive. For the same compound, the outcome in the data set filed under Mus musculus [6], with NIH3T3 [7], with NIH3T3 [11], in the data set filed under Mus musculus [22] and in the data set with HEK293 [14] was Active. In addition, the hemolysis at 1 h, 400 µM in data set [8] is 7.88%. Also, the Kd (usually the free concentration of one partner at which half of the binding sites on the other are occupied at equilibrium, for simple one-to-one binding) with Lipopolysaccharide (LPS) is 25 µM. In addition, the viability at 24 h, 16 µM in [21] is over 90%.

Take H-LKKWTLKASQFFGLM-NH2: the inhibition entry in the data set on RAW264.7 [1] was “Active”. Besides, the MIC with Pseudomonas aeruginosa [2] was determined as 64 µM; with Staphylococcus aureus [3] it was 128 µM; with Pseudomonas aeruginosa [9], 64 µM; in the data set with Escherichia coli [10], 16 µM; with Bacillus subtilis, 16 µM; in the data set with Escherichia coli [12], 16 µM. Moreover, in the data set with Staphylococcus aureus [13], the MIC is over 128 µM. Moreover, in the data set listed under Mus musculus [6], the outcome was Active. Also, the hemolysis at 1 h, 400 µM in data set [8] came to 11.2%. In [21], the viability at 24 h, 16 µM is over 90%.

Regarding `CC1(C)S[C@@H]2[C@H](NC(=O)[C@H](N)c3ccc(O)cc3)C(=O)N2[C@H]1C(=O)O` [AMOXICILLIN], the MIC is over 128 µM with Pseudomonas aeruginosa [2]; 2 µM (≈ 0.731 µg/mL) in the data set on Staphylococcus aureus [3]; over 128 µM in the data set on Pseudomonas aeruginosa [9]; 16 µM (≈ 5.85 µg/mL) with Escherichia coli [10]; 8 µM (≈ 2.92 µg/mL) with Bacillus subtilis; 4 µM (≈ 1.46 µg/mL) in the data set on Escherichia coli [12]. The minimal inhibitory concentration (MIC) in the data set with Staphylococcus aureus [13] was under 1 µM.

For H-LKKWLKKWTPKASQFFGLM-NH2, the inhibition result with RAW264.7 [1] is “Active”. Further, the Activity result in the data set with RAW264.7 [18], with RAW264.7 [19] and in the data set on RAW264.7 [20] was “Dose-Dependent Effect” throughout. Also, the MIC in the data set on Pseudomonas aeruginosa [2] stood at 4 µM; in the data set on Staphylococcus aureus [3] it was 32 µM; in the data set with Pseudomonas aeruginosa [9] it was 2 µM; in the data set with Escherichia coli [10], 2 µM; with Bacillus subtilis, 2 µM; in the data set on Escherichia coli [12], 2 µM. Besides, the minimum inhibitory concentration (MIC) with Staphylococcus aureus [13] is 32 µM. For the same compound, in the data set with HEK293 [4], the outcome was inactive. For the same compound, the outcome in the data set filed under Mus musculus [6], with NIH3T3 [7], in the data set with NIH3T3 [11], in the data set listed under Mus musculus [22] and with HEK293 [14] was Active. The hemolysis at 1 h, 400 µM in [8] is 2.94%. The Kd in the data set on Lipopolysaccharide (LPS) was determined as 311 µM. Also, the viability at 24 h, 16 µM in data set [21] was over 90%.
